In patent publication US9321718B2 (CHROMA THERAPEUTICS LTD., priority 2010, dated 2016):

How the values were obtained:
[1] = biological target: T1, human recombinant his-tagged HSP90α (Homo sapiens, UniProt P07900); test: HSP90 enzyme assay (HTRF, competition with biotinylated Geldanamycin); type: binding; conditions: for IC50: IC50 range, read-out: Enzyme Assay
T1 construct: purchased Prospec Technogene #HSP90
Source text: An HTRF (homogeneous time resolved fluorescence) assay is used to measure the interaction of the compounds with HSP90. The assay measures binding of biotinylated Geldanamycin (bio-GM; Biomol, #EI-341, lot: A9199a) to human recombinant his-tagged HSP90α (HSP90; Prospec Technogene, #HSP90, lot: 260HSP9001). A signal is generated by fluorescence resonance energy transfer from an Europium-cryptate labeled anti-his antibody (anti-his-K; Cisbio International, #61HISKLA, lot: 33V) via the HSP90-GM-biotin complex to a fluorescence acceptor (allophycocyanin) linked to streptavidin (SA-XL; Cisbio International, #610SAXLB, lot: 089).
Unlabeled GM or compounds compete with the bio-GM for binding to HSP90 resulting in reduced fluorescence energy transfer/assay signal.
A preformed (1 hour incubation) complex of HSP90 with the anti-his-K is added to the compound solution in a 384 well microplate (Corning, #3710) and incubated for 15 minutes. A preformed (1 hour incubation) complex of bio-GM with the SA-XL is added to the wells and incubated for 20 hours. All incubations are performed at room temperature. The final assay volume is 50 μl/well. The final concentrations in the assay are: 50 mM Hepes pH 7.3, 50 mM NaCl, 100 mM KF, 1 mM EDTA, 1 mM DTT, 0.1% Triton-X-100, […] HSP90, 40 nM SA-XL, 40 nM bio-GM. Test compounds are dissolved in DMSO, prediluted in assay buffer and tested at a final concentration between 5000 nM and 0.3 nM. The resulting DMSO concentration is 0.5% and included in all controls. High controls are without test compounds, low controls without test compounds, without HSP90 and without bio-GM. As a reference inhibitor unlabeled GM is used in the same concentrations as the test compounds.
Inhibition is calculated compared to the assay controls using an Excel spreadsheet (Microsoft). IC50 values are calculated by non-linear least squares fitting to the standard dose-response model using GraphPad Prism (GraphPad Software Inc).

[2] = system: TNFα release from LPS stimulated THP-1 (hCE-1 +ve) cells; test: LPS-stimulation of THP-1 cells (TNF-α release); type: cell-based, human; conditions: Homo sapiens, THP-1; IC50 range; TNF-α after LPS 1 μg/ml, 6 hours; read-out: THP-1 Assay
Experimental: THP-1 cells are plated in […] at a density of 4×10^4 cells/well in V-bottomed 96 well tissue culture treated plates and incubated at 37° C. in 5% CO2 for 16 hours. 2 Hours after the addition of the inhibitor in 100 μl of tissue culture media, the cells are stimulated with LPS (E. Coli strain 005:B5, Sigma) at a final concentration of 1 μg/ml and incubated at 37° C. in 5% CO2 for 6 hours. TNF-α levels are measured from cell-free supernatants by sandwich ELISA (R&D Systems #QTA00B).

Molecule | IC50 [1] [nM] | IC50 [2] [nM] | IC50 in the Hsp90 binding assay compared with CHR-7310 ([1]; in words, relative to non-ester parent CHR-7310)
CC(C)C[C@H](NC1CCN(C(=O)c2cc(C(C)C)c(O)cc2O)CC1)C(=O)OC(C)(C)C [Example 6, tert-butyl N-(1-{[2,4-dihydroxy-5-(propan-2-yl)phenyl]carbonyl}piperidin-4-yl)-L-leucinate] | < 100 | > 1000 | 
CC(C)C[C@H](NC1CCCN(C(=O)c2cc(C(C)C)c(O)cc2O)C1)C(=O)OC1CCCC1 (stereo partly drawn) [Example 7, cyclopentyl N-(1-{[2,4-dihydroxy-5-(propan-2-yl)phenyl]carbonyl}piperidin-3-yl)-L-leucinate] | 100 to 1000 | > 1000 | 
CC(C)c1cc(C(=O)N2CCC(N[C@H](C(=O)O)C(C)C)CC2)c(O)cc1O [Example 98, N-(1-{[2,4-dihydroxy-5-(propan-2-yl)phenyl]carbonyl}piperidin-4-yl)-L-valine] | < 100 |  | 
CC(C)c1cc(C(=O)N2CCC(N[C@H](C(=O)O)c3ccccc3)CC2)c(O)cc1O [Example 99, (2S)-[(1-{[2,4-dihydroxy-5-(propan-2-yl)phenyl]carbonyl}piperidin-4-yl)amino](phenyl)ethanoic acid] | < 100 |  | 
CC(C)c1cc(C(=O)N2CCC(N[C@@H](C)C(=O)O)CC2)c(O)cc1O [Example 100, N-(1-{[2,4-dihydroxy-5-(propan-2-yl)phenyl]carbonyl}piperidin-4-yl)-L-alanine] | < 100 |  | 
CC(C)c1cc(C(=O)N2CCC(N[C@@H](Cc3ccccc3)C(=O)O)CC2)c(O)cc1O [Example 101, N-(1-{[2,4-dihydroxy-5-(propan-2-yl)phenyl]carbonyl}piperidin-4-yl)-L-phenylalanine] | < 100 |  | 
CC(C)C[C@H](NC1CCCN(C(=O)c2cc(C(C)C)c(O)cc2O)C1)C(=O)O (stereo partly drawn) [Example 102, N-(1-{[2,4-dihydroxy-5-(propan-2-yl)phenyl]carbonyl}piperidin-3-yl)-L-leucine] | 100 to 1000 |  | 
CC(C)C[C@H](NCC1CCN(C(=O)c2cc(C(C)C)c(O)cc2O)CC1)C(=O)O [Example 103, N-[(1-{[2,4-dihydroxy-5-(propan-2-yl)phenyl]carbonyl}piperidin-4-yl)methyl]-L-leucine] | < 100 |  | 
CC(C)C[C@H](NCCC1CCN(C(=O)c2cc(C(C)C)c(O)cc2O)CC1)C(=O)O [Example 104, N-[2-(1-{[2,4-dihydroxy-5-(propan-2-yl)phenyl]carbonyl}piperidin-4-yl)ethyl]-L-leucine] | < 100 |  | 
CCCC[C@H](NC1CCN(C(=O)c2cc(C(C)C)c(O)cc2O)CC1)C(=O)O [Example 105, N-(1-{[2,4-dihydroxy-5-(propan-2-yl)phenyl]carbonyl}piperidin-4-yl)-L-norleucine] | < 100 |  | 
CC(C)c1cc(C(=O)N2CCC(CN[C@@H](C)C(=O)O)CC2)c(O)cc1O [Example 106, N-[(1-{[2,4-dihydroxy-5-(propan-2-yl)phenyl]carbonyl}piperidin-4-yl)methyl]-L-alanine] | < 100 |  | 
CC(C)c1cc(C(=O)N2CCC(CN[C@@H](Cc3ccccc3)C(=O)O)CC2)c(O)cc1O [Example 107, N-[(1-{[2,4-dihydroxy-5-(propan-2-yl)phenyl]carbonyl}piperidin-4-yl)methyl]-L-phenylalanine] | < 100 |  | 
N-[2-(1-{[2,4-dihydroxy-5-(propan-2-yl)phenyl]carbonyl}piperidin-4-yl)ethyl]-2-methylalanine [Example 114] | < 100 |  | 
N-{3-[(1-{[2,4-dihydroxy-5-(propan-2-yl)phenyl]carbonyl}piperidin-4-yl)amino]propyl}-L-leucine [Example 127] | < 100 |  | 
tert-butyl N-[2-(1-{[2,4-dihydroxy-5-(propan-2-yl)phenyl]carbonyl}piperidin-4-yl)ethyl]-L-serinate [Example 52] | < 100 |  | 

Results, then the molecule that gave them:

IC50 [1] [nM] | IC50 [2] [nM] | IC50 in the Hsp90 binding assay compared with CHR-7310 ([1]; in words, relative to non-ester parent CHR-7310) | Molecule
< 100 |  |  | CC(C)C[C@@H](NCC1CCN(C(=O)c2cc(C(C)C)c(O)cc2O)CC1)C(=O)O [Example 108, N-[(1-{[2,4-dihydroxy-5-(propan-2-yl)phenyl]carbonyl}piperidin-4-yl)methyl]-D-leucine]
> 1000 |  |  | CC(C)C[C@@H](NC1CCN(C(=O)c2cc(C(C)C)c(O)cc2O)CC1)C(=O)O [Example 109, N-(1-{[2,4-dihydroxy-5-(propan-2-yl)phenyl]carbonyl}piperidin-4-yl)-D-leucine]
< 100 |  |  | CC(C)c1cc(C(=O)N2CCC(N[C@@H](CC3CCCCC3)C(=O)O)CC2)c(O)cc1O [Example 110, 3-cyclohexyl-N-(1-{[2,4-dihydroxy-5-(propan-2-yl)phenyl]carbonyl}piperidin-4-yl)-L-alanine]
< 100 |  |  | CC(C)c1cc(C(=O)N2CCC(CCN[C@@H](Cc3ccccc3)C(=O)O)CC2)c(O)cc1O [Example 111, N-[2-(1-{[2,4-dihydroxy-5-(propan-2-yl)phenyl]carbonyl}piperidin-4-yl)ethyl]-L-phenylalanine]
< 100 |  |  | CC(C)c1cc(C(=O)N2CCC(CN[C@H](C(=O)O)C(C)C)CC2)c(O)cc1O [Example 112, N-[(1-{[2,4-dihydroxy-5-(propan-2-yl)phenyl]carbonyl}piperidin-4-yl)methyl]-L-valine]
< 100 |  |  | CC(C)c1cc(C(=O)N2CCC(N[C@H](C(=O)O)C3CCCCC3)CC2)c(O)cc1O [Example 113]
< 100 |  |  | CC(C)c1cc(C(=O)N2CCC(CCN[C@@H](COC(C)(C)C)C(=O)O)CC2)c(O)cc1O [Example 115, O-tert-butyl-N-[2-(1-{[2,4-dihydroxy-5-(propan-2-yl)phenyl]carbonyl}piperidin-4-yl)ethyl]-L-serine]
< 100 |  |  | CC(C)c1cc(C(=O)N2CCC(CN[C@H](C(=O)O)C3CCCCC3)CC2)c(O)cc1O [Example 116, (2S)-cyclohexyl{[(1-{[2,4-dihydroxy-5-(propan-2-yl)phenyl]carbonyl}piperidin-4-yl)methyl]amino}ethanoic acid]
< 100 |  |  | CC(C)c1cc(C(=O)N2CCC(CNC(C)(C)C(=O)O)CC2)c(O)cc1O [Example 117, N-[(1-{[2,4-dihydroxy-5-(propan-2-yl)phenyl]carbonyl}piperidin-4-yl)methyl]-2-methylalanine]
< 100 |  |  | CC(C)c1cc(C(=O)N2CCC(CN[C@@H](CO)C(=O)O)CC2)c(O)cc1O [Example 118, N-[(1-{[2,4-dihydroxy-5-(propan-2-yl)phenyl]carbonyl}piperidin-4-yl)methyl]-L-serine]
< 100 |  |  | CC(C)c1cc(C(=O)N2CCC(CN[C@@H](COC(C)(C)C)C(=O)O)CC2)c(O)cc1O [Example 119]
< 100 |  |  | CC(C)c1cc(C(=O)N2CCC(CN[C@H](C(=O)O)c3ccccc3)CC2)c(O)cc1O [Example 120, (2S)-{[(1-{[2,4-dihydroxy-5-(propan-2-yl)phenyl]carbonyl}piperidin-4-yl)methyl]amino}(phenyl)ethanoic acid]
< 100 |  |  | CC(C)c1cc(C(=O)N2CCC(CCN[C@H](C(=O)O)C(C)C)CC2)c(O)cc1O [Example 121, N-[2-(1-{[2,4-dihydroxy-5-(propan-2-yl)phenyl]carbonyl}piperidin-4-yl)ethyl]-L-valine]
< 100 |  | similar | CC(C)c1cc(C(=O)N2CCC(N[C@@H](COC(C)(C)C)C(=O)O)CC2)c(O)cc1O [Example 122, O-tert-butyl-N-(1-{[2,4-dihydroxy-5-(propan-2-yl)phenyl]carbonyl}piperidin-4-yl)-L-serine]
< 100 |  |  | CC(C)c1cc(C(=O)N2CCC(CCN[C@H](C(=O)O)C3CCCCC3)CC2)c(O)cc1O [Example 123, (2S)-cyclohexyl{[2-(1-{[2,4-dihydroxy-5-(propan-2-yl)phenyl]carbonyl}piperidin-4-yl)ethyl]amino}ethanoic acid]
< 100 |  |  | CC(C)c1cc(C(=O)N2CCC(CCN[C@H](C(=O)O)c3ccccc3)CC2)c(O)cc1O [Example 124, (2S)-{[2-(1-{[2,4-dihydroxy-5-(propan-2-yl)phenyl]carbonyl}piperidin-4-yl)ethyl]amino}(phenyl)ethanoic acid]
< 100 |  |  | CC(C)c1cc(C(=O)N2CCC(N[C@@H](CO)C(=O)O)CC2)c(O)cc1O [Example 125, N-(1-{[2,4-dihydroxy-5-(propan-2-yl)phenyl]carbonyl}piperidin-4-yl)-L-serine]
